Test results from article PMC7486275 (Nature, 2020).
Where two headings read alike, the source gives them in different places. Peptide text beside a SMILES is read from it. * marks the point of attachment. Cbz = O=C(OCc1ccccc1)*

What was measured:
[1] = biological target: CDK12-cycK and DDB1 (Homo sapiens, UniProt Q16531+Q9NYV4, K965R); test: TR-FRET titration of CDK12-Alexa488cycK to terbiumDDB1; settings: vs basal binding in DMSO
[2] = biological target: cycKeGFP in HEK293TCas9 cells (Homo sapiens, UniProt Q16531+Q9NYV4); assay type: cell-based
[3] = biological target: CDK12-cycK complex by RBX1N8CUL4-DDB1 (Homo sapiens, UniProt Q16531+Q9NYV4, K965R); test: In vitro ubiquitination assay; assay type: biochemical; settings: 2 μM compound
CDK12-cycK complex by RBX1N8CUL4-DDB1, sequence (Q15843 1-76): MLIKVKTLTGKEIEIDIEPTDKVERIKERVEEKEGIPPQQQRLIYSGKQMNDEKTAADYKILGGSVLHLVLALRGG
CDK12-cycK complex by RBX1N8CUL4-DDB1, sequence (Q16531 whole entry): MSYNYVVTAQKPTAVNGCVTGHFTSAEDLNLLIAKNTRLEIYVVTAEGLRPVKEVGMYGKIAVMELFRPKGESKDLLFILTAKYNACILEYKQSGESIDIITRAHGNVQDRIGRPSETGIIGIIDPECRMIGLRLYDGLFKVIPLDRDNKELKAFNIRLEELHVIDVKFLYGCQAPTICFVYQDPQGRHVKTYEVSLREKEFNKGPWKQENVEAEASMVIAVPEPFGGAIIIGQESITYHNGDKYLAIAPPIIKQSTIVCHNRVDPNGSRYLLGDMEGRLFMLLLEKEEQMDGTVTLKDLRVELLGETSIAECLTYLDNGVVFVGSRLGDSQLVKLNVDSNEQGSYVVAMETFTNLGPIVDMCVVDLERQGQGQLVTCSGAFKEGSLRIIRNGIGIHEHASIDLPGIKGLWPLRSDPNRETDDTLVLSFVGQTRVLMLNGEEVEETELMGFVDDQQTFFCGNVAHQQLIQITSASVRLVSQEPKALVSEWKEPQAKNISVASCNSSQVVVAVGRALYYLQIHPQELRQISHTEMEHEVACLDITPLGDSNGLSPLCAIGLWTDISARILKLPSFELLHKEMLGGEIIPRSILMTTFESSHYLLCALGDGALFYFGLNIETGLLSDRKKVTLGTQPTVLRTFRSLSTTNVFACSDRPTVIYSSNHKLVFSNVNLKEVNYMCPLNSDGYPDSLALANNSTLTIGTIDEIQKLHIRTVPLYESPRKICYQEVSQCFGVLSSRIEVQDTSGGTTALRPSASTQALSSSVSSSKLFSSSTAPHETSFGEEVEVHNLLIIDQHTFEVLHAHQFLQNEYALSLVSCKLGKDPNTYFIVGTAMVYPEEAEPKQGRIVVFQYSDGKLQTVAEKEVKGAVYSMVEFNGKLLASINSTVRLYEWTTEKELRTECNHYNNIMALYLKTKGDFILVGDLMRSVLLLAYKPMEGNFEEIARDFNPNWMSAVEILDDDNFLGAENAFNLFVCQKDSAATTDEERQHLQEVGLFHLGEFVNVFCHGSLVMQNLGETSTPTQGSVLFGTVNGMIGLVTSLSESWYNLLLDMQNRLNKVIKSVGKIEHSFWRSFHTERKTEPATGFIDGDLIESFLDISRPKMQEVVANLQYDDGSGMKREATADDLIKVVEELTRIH
CDK12-cycK complex by RBX1N8CUL4-DDB1, sequence (Q9NYV4 713-1052 K965R): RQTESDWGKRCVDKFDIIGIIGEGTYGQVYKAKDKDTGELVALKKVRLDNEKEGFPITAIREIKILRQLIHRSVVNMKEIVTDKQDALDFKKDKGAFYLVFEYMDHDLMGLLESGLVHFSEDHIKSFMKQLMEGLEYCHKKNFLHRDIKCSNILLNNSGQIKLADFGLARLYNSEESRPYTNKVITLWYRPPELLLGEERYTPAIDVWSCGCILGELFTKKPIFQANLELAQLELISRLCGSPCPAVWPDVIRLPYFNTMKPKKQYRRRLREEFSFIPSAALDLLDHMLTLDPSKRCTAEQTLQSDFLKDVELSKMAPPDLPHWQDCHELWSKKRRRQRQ
CDK12-cycK complex by RBX1N8CUL4-DDB1, sequence (P62877 whole entry, further chain): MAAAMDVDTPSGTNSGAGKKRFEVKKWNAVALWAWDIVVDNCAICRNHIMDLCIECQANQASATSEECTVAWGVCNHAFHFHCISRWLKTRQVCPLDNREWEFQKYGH
CDK12-cycK complex by RBX1N8CUL4-DDB1, sequence (O75909 1-267, further chain): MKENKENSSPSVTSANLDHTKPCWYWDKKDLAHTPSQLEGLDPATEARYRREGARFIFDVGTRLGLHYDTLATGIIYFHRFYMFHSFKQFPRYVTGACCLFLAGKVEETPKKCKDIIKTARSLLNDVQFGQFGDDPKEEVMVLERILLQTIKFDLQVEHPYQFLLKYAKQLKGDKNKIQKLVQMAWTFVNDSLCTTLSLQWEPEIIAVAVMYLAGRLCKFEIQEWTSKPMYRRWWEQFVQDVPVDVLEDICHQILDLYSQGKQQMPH
CDK12-cycK complex by RBX1N8CUL4-DDB1, sequence (Q13619 whole entry, further chain): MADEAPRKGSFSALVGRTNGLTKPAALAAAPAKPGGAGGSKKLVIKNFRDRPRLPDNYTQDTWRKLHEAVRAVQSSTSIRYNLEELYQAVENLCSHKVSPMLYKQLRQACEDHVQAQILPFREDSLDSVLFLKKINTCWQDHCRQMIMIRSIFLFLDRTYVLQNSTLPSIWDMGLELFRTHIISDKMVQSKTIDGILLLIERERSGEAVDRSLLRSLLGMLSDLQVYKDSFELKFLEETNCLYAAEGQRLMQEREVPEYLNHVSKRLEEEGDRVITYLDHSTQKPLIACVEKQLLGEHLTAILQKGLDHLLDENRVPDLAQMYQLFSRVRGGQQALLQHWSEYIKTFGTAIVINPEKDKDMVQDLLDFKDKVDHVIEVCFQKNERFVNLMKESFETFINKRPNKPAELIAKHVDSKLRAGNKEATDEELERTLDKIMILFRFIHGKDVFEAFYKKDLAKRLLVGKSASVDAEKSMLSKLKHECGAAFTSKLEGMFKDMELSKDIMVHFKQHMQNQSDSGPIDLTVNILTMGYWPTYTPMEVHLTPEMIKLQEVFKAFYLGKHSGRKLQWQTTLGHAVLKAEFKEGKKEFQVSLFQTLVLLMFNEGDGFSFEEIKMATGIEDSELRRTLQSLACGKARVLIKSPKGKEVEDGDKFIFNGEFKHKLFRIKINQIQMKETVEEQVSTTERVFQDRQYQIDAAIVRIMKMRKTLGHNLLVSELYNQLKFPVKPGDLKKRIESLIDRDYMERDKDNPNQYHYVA

[4] = system: CycK in HEK293TCas9 cells; test: Immunoblots of CycK degradation; assay type: cell-based, human; settings: pre-treated with 0.5 μM MLN7243, 1 μM MLN4924 or 10 μM MG132 for 4 hours, then 1 μM CR8 for 2 hours
[5] = system: HEK293TCas9 cells; settings: 3 days
[6] = system: K562Cas9, OVK16Cas9, A564Cas9, ES2Cas9 and MOLM13Cas9 cell lines; test: Validation of drug-E3 ligase pairs; assay type: cell-based; settings: flow-based validation, 3 days

CDK12-cycK and DDB1, sequence (Q9NYV4 713-1052 K965R): as the sequence (Q9NYV4 713-1052 K965R) above
CDK12-cycK and DDB1, sequence (O75909 1-267, further chain): as the sequence (O75909 1-267, further chain) above
CDK12-cycK and DDB1, sequence (Q16531 whole entry): as the sequence (Q16531 whole entry) above

Row | SMILES | effect on CDK12-cycK interaction with DDB1 (TR-FRET signal) [1] | cycK ubiquitination in vitro [3] | rescue of CR8-induced cycK degradation [4] | other results
1 | Nc1ncnc2c1ncn2[C@@H]1O[C@H](COP(=O)(O)OP(=O)(O)OP(=O)(O)O)[C@@H](O)[C@H]1O [ATP] | neither facilitated nor abrogated the interaction |  |  | 
2 | CN1CC[C@H](c2c(O)cc(O)c3c(=O)cc(-c4ccccc4Cl)oc23)[C@H](O)C1 [Flavopiridol] | stimulated the binding of CDK12-cycK to DDB1 | moderate cycK ubiquitination |  | degradation of the cycKeGFP reporter in cells ([2]; HEK293TCas9 cells, 1 μM compound, 2 hours): failed to degrade cycK in cells
3 | CC(C)C[C@@H](C=O)NC(=O)[C@H](CC(C)C)NC(=O)[C@H](CC(C)C)NC(=O)OCc1ccccc1 [MG132] (Cbz-Leu-Leu-Leu-aldehyde) |  |  | rescued | 
4 | NS(=O)(=O)OC[C@@H]1C[C@@H](n2ccc3c(N[C@H]4CCc5ccccc54)ncnc32)C[C@@H]1O [MLN4924] |  |  | rescued | effect on cell viability [5]: only minor effects on cell viability
5 | NS(=O)(=O)OC[C@H]1C[C@@H](Nc2ccnc3cc(-c4cccc(SC(F)(F)F)c4)nn23)[C@H](O)[C@@H]1O [MLN7243] |  |  | rescued | 
6 | CC[C@H](CO)Nc1nc(NCc2ccccc2)c2ncn(C(C)C)c2n1 [Roscovitine] |  | less processive ubiquitination |  | degradation of the cycKeGFP reporter in cells [2]: neither DRF053 nor roscovitine induced degradation
7 | CN(C)C/C=C/C(=O)Nc1ccc(C(=O)N2CCC[C@@H](Nc3ncc(Cl)c(-c4c[nH]c5ccccc45)n3)C2)cc1 [THZ531] | further decreased the TR-FRET signal | diminished cycK ubiquitination in vitro below DMSO control levels |  | 
8 | NS(=O)(=O)c1ccc(S(=O)(=O)Nc2cccc3c(Cl)c[nH]c23)cc1 [indisulam] |  |  |  | effect of sgRNAs targeting DCAF15 on drug-induced toxicity [6]: confer resistance
9 | O=C(NS(=O)(=O)c1ccc(Br)s1)c1ccc(Cl)cc1Cl [tasisulam] |  |  |  | effect of sgRNAs targeting DCAF15 on drug-induced toxicity [6]: confer resistance
